The subject of this test is M. tuberculosis H37Rv growth inhibition, 7H9 media. Put plainly: M. tuberculosis growth inhibition, HTS (AID 449762).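 As to all read-outs here: bacterial growth assessed after seven days of incubation.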 As to conditions: for IC90: measured here: IC90 growth inhibition.

Results filed as inconclusive are left out.

A word on the IC50: it is the concentration needed to halve the response being measured. Usually IC90 stands for the point of the concentration-response curve where the effect stands at 90%. The low end stands for an effect from little substance, the high end for a need for much substance.

For the compound `CCOC(=O)CSc1nnc(-c2ccc(S(=O)(=O)NCc3cccs3)cc2)o1`, the IC50 is 2.55 µM and the IC90 was determined as 4.55 µM.

Regarding `O=C(NCc1ccccn1)C(=O)Nc1nc(C23CC4CC(CC(C4)C2)C3)cs1`, the IC50 was 1.75 µM and the IC90 is 5.26 µM.

As for `CCCc1ccc2oc(C(=O)N(C)Cc3nccs3)c(C)c2c1`, the IC50 is 32.1 µM and the IC90 worked out at 60.3 µM.

Compound `Clc1ccc(CSc2ncn[nH]2)cc1` came in with an IC90 of more than 100 µM.

Consider `CC1CCCC/C1=N\NC(=S)NCCc1ccccc1` (stereo unspecified), for which the IC50 was 21.9 µM and the IC90 came to 24.6 µM.

As to `COc1ccc(C(=O)Cn2nc(CNc3ccc(Br)cc3)[n+]3c2CCCCC3)cc1`, the half-inhibitory concentration (IC50) was 9.77 µM and the IC90 stood at 13.7 µM.

On to `Cc1ccc(NC(=O)COC(=O)CCc2c[nH]c3ccccc23)cc1[N+](=O)[O-]`, for which the half-inhibitory concentration (IC50) was 0.68 µM and the IC90 was found to be 4.74 µM.

For the compound `O=C(/C=C/c1cn(-c2ccccc2)nc1-c1cccnc1)c1ccco1`, the IC50 is 14.8 µM and the IC90 amounted to 46.6 µM.

`N/C(=N\NC(=O)c1sccc1OCc1ccc(Cl)cc1Cl)c1ccccn1`: the IC50 was 15.7 µM and the concentration for an effect of 90% (IC90) amounted to 46 µM.

As to `CCN1c2ccccc2N(C)C1(C)c1ccccc1` (stereo unspecified), the IC50 is 6 µM and the IC90 amounted to 6.79 µM.

With `CC(=O)O[C@H]1C[C@@]2(C)[C@@H](C[C@@H](O)[C@H]3[C@@]4(C)CC[C@@H](O)[C@@H](C)[C@@H]4CC[C@@]32C)/C1=C(\CCC=C(C)C)C(=O)O`, the IC50 was 1.6 µM and the IC90 came to 4.42 µM.

With `CCCc1cc(-c2nc(N)ncc2-c2ccc3c(c2)OCCCO3)c(O)cc1OC`, the IC50 is 48.6 µM and the IC90 came out at 54.9 µM.

Turning to `CC(C)Cn1c(N2CCN(C(=O)/C=C/c3ccccc3)CC2)nc2ccccc21`, the half-inhibitory concentration (IC50) is 23.7 µM and the IC90 is 27.2 µM.

As to `COc1ccc(-c2c(C#N)c(SCC(=O)c3cc4ccccc4oc3=O)nc(C)c2C(=O)Nc2ccccc2)cc1`, the IC50 was 45.9 µM and the IC90 came to 75.6 µM.

On to `Cn1ncnc2c(=O)n(C)c(=O)nc1-2`, for which the IC50 was 1.66 µM and the IC90 is 2.62 µM.

Take `CC(C)Oc1ccc(-c2nc(NCC3CCCO3)c3ccccc3n2)cc1` (stereo unspecified): the concentration for half-maximal inhibition (IC50) is 68 µM and the IC90 was 91.3 µM.

Take `O=C1C(Cl)=C(N2CCOCC2)C(=O)N1c1cccc(Cl)c1`: the IC50 is 3.48 µM and the IC90 came out at 7.3 µM.

Consider `COc1ccc(NC(=O)c2oc3ccc(S(=O)(=O)N4CCOCC4)cc3c2C)cc1`, for which the IC50 is 0.68 µM and the IC90 came out at 7.38 µM.

For `CNC[C@H](Cc1cccc2ccccc12)NC[C@H](CCSC)NCC1CCC(C(C)(C)C)CC1` (stereo partly specified), the IC50 is 22.4 µM and the IC90 turned out to be 24.2 µM.

In the case of `CC1=NN(c2ccccc2)C(=O)C1C(=O)c1ccccc1` (stereo unspecified), the half-maximal inhibitory concentration (IC50) was 25.7 µM and the IC90 was found to be 53 µM.

Regarding `CCOC(=O)CSc1nn(-c2ccccc2)c(=S)s1`, the IC50 is 4.75 µM and the IC90 is 9.22 µM.

For `Cc1ccn2c(-c3csc(NCc4ccccc4)n3)c(C)nc2c1`, the IC50 is 46.8 µM and the IC90 turned out to be 52.8 µM.

Regarding `CC(=NCc1ccc2c(c1)OCO2)C1=C(O)c2ccccc2C1=O`, the half-maximal inhibitory concentration (IC50) was 1.09 µM and the IC90 is more than 100 µM.

On to `O=[N+]([O-])c1ccc(-c2nc(-c3cccs3)c(-c3cccs3)[nH]2)cc1`, for which the IC50 was 21.7 µM and the IC90 was more than 100 µM.

With `CCOC(=O)c1c(-c2ccc(OC)cc2)csc1NC(=O)CNCc1ccco1`, the IC50 is 10.9 µM and the IC90 came out at 16.4 µM.

Turning to `O=C(Cn1ncc(Cl)c(Cl)c1=O)c1ccc2c(c1)OCCO2`, the IC50 is 6.83 µM and the IC90 stood at 12.2 µM.

Turning to `Cc1cc(NC(=O)c2cc(-c3ccncc3)nc3c(C)cccc23)no1`, the IC50 was 46.5 µM and the concentration for an effect of 90% (IC90) was more than 100 µM.

In the case of `Cc1cc2[nH]c3c(c[n+](C)c4ccccc34)c2cc1C`, the IC50 was 8.57 µM and the IC90 was determined as 13.1 µM.

As for `CC(=O)Nc1sc2c(c1-c1nc3ccccc3s1)CCN(C(C)C)C2`, the IC50 was 5.88 µM and the IC90 stood at 6.66 µM.

As for `C/C(=C\C(=S)Nc1ccccc1)Nc1ccc2ccccc2c1`, the IC50 was 40.6 µM and the IC90 turned out to be 52.9 µM.

As to `CN1/C(=C/C(=O)c2nc(S(C)(=O)=O)ncc2Cl)C(C)(C)c2ccccc21`, the IC50 is 3.21 µM and the IC90 is 10.7 µM.

Consider `O=C(Nc1nc2c(s1)CCCC2)c1cc(-c2ccc3c(c2)OCO3)nc2ccccc12`, for which the IC50 was 66 µM and the IC90 is more than 100 µM.

As to `O=c1c2cc(-c3ccccc3)sc2ncn1/N=C/c1ccco1`, the IC50 was 82.7 µM and the IC90 is more than 100 µM.

With `CCN1CCN(CCCNC(=O)c2ccc(/C=C3/Oc4ccccc4N(Cc4cccc(C)c4)C3=O)cc2)CC1`, the IC50 is 29.6 µM and the IC90 was 42.2 µM.

In the case of `COC(=O)[C@@H](NC(=O)O[C@@H]1C(=O)c2ccc(OC)cc2O[C@H]1c1cccc(C(F)(F)F)c1)C(C)C`, the IC50 is 56.2 µM and the IC90 is more than 100 µM.

As for `CC(C)C(=O)N1CCC2(CC1)Oc1ccc(Cl)cc1C(=O)C21CC(c2ccccc2)=NO1` (stereo unspecified), the IC50 is 67.8 µM and the IC90 was more than 100 µM.

For `CN(C)c1ccc(CNc2nc(-c3ccccc3)nn2S(C)(=O)=O)cc1`, the IC50 was 12 µM and the IC90 came out at 13.8 µM.

Regarding `O=C(Cc1ccc([N+](=O)[O-])cc1)Nc1cc(C(F)(F)F)cc(C(F)(F)F)c1`, the IC50 is 2.74 µM and the IC90 turned out to be 3.12 µM.

With `CC1(c2nnc(-c3ccncc3)o2)CC(c2ccccc2)=NO1` (stereo unspecified), the IC50 was 63.3 µM and the IC90 was more than 100 µM.

In the case of `O=C(CSc1ccc(Cl)cc1)N1CCC(c2nc3ccccc3s2)CC1`, the IC50 was 85.9 µM and the IC90 stood at 92.9 µM.

As for `O=C(/C=C/c1ccco1)Nc1cccc(-c2nc3ccccc3[nH]2)c1`, the IC50 is 78.5 µM and the IC90 is more than 100 µM.

As for `Cc1[nH]c2ccccc2c1/C=N/Nc1nc(Nc2ccccc2)nc(N2CCOCC2)n1`, the IC50 was 2.88 µM and the IC90 is 10 µM.

As to `Cc1cc(C=C2C(=O)NC(=S)NC2=O)c(C)n1C1CCCC1`, the IC50 was 10.9 µM and the IC90 amounted to 47.2 µM.

For `CCOc1ccc(-c2cc(C)[n+](CCc3ccc(OC)c(OC)c3)c(-c3ccc(OCC)cc3)c2)cc1`, the IC50 is 0.92 µM and the concentration for an effect of 90% (IC90) was 1.8 µM.

Turning to `Cc1[nH]c2ccc(OC(F)(F)F)cc2c1CCNCc1ccc(Cl)cc1`, the IC50 is 10.9 µM and the IC90 worked out at 19 µM.

As to `COc1cc(OC)nc(Oc2ccccc2C(=O)Oc2ccc(Cl)cc2)n1`, the IC50 is 68.5 µM and the IC90 was more than 100 µM.

For `CCCc1cnc(NCCNCC(O)COc2ccc(Cl)c(Cl)c2)nc1` (stereo unspecified), the IC50 is 17.1 µM and the 90% effect concentration (IC90) stood at 22.1 µM.

Regarding `Cc1nc2ccc(NC(=O)c3ccc([N+](=O)[O-])cc3[N+](=O)[O-])cc2s1`, the IC50 was 1.62 µM and the IC90 was 16.7 µM.

For `C/C(=N\NC(=O)COc1ccc(C)cc1Br)c1cc([N+](=O)[O-])cs1`, the IC50 was 4.07 µM and the concentration for an effect of 90% (IC90) was 34.1 µM.

In the case of `CCN(CC)Cc1nc2c(c(=O)[nH]1)C(CC)(CC)Cc1ccccc1-2`, the IC50 is 4.46 µM and the 90% effect concentration (IC90) worked out at 18.4 µM.

For `c1ccc(CN2CCC3(CCCc4ccccc43)CC2)cc1`, the IC50 is 10.3 µM and the IC90 is 13.6 µM.

In the case of `CCOC(=O)c1nnc(-c2ccccc2)nc1NCc1ccccc1`, the IC50 was 14.6 µM and the IC90 is more than 100 µM.

Consider `Cc1cc(=O)oc2cc(Oc3ccc([N+](=O)[O-])cc3C(F)(F)F)ccc12`, for which the 50% inhibitory concentration (IC50) is 68.7 µM and the IC90 is more than 100 µM.

As for `COc1ccc(-c2nnc(SCC(=O)N3CCc4ccccc4C3)o2)cc1`, the IC50 is 17.6 µM and the IC90 worked out at 29.2 µM.

For `CCOc1ccc2nc(NC(=O)C34CC5CC(CC(NC(C)=O)(C5)C3)C4)sc2c1`, the IC50 was 17.8 µM and the IC90 is 28.4 µM.

Consider `CCOC(=O)c1nn(-c2ccc(C)c(C)c2)cc1O`, for which the IC50 was 27.1 µM and the IC90 is more than 100 µM.

Consider `Cc1cc(C)n(C(=O)c2ccc([N+](=O)[O-])cc2[N+](=O)[O-])n1`, for which the concentration for half-maximal inhibition (IC50) was 4.57 µM and the IC90 worked out at 8.45 µM.

Consider `Cc1ccc2nc(/N=C(\N)NC(=O)NC3CCCCC3)nc(C)c2c1`, for which the IC50 is 2.22 µM and the IC90 turned out to be 8.85 µM.

For the compound `CCCC(=O)Nc1ccc(C(=O)/C=C/c2ccc(SC)cc2)cc1`, the IC50 is 22.9 µM and the IC90 was found to be 37.1 µM.

On to `CCCCCCCCNC(=O)CCNC(=O)c1ccc(C(C)(C)C)cc1`, for which the IC50 was 35.3 µM and the IC90 was 44.6 µM.

On to `CCOC(=O)c1cnc2ccc(OCC)cc2c1N1CCN(c2ccccc2)CC1`, for which the IC50 is 27.1 µM and the IC90 is more than 100 µM.

For `CCN(CC)CCCNc1nc2cc(OC)c(OC)cc2c2nc(-c3ccccc3)nn12`, the IC50 was 4.71 µM and the IC90 was found to be 6 µM.

`O=C(N/N=C/c1ccc(Br)s1)c1cccs1`: the IC50 is 24.3 µM and the concentration for an effect of 90% (IC90) was more than 100 µM.

With `Cc1ccc(C(C(=O)NCC2CCCO2)N(Cc2ccccc2)C(=O)c2ccc(-c3ccccc3)[nH]2)o1` (stereo unspecified), the IC50 is 23.3 µM and the IC90 came out at 35.6 µM.

Turning to `CCOc1cc(CNCCCN2CCOCC2)cc(Br)c1OCC(=O)Nc1cccc(C(F)(F)F)c1`, the IC50 was 22.1 µM and the IC90 was found to be 31.7 µM.

`O=C(CCC(=O)NC1CCCCCCC1)Nc1nnc(C(F)(F)F)s1`: the IC50 was 12 µM and the IC90 was 13.9 µM.

Turning to `CCCc1cc(=O)n2[nH]c(C)c(-c3ccc(Cl)cc3)c2n1`, the IC50 is 6.8 µM and the IC90 stood at 18.1 µM.

In the case of `Cc1ccc(CNC(=O)c2sc3nc4c(c(C(F)(F)F)c3c2N)CCC4)cc1`, the IC50 was 35.7 µM and the concentration for an effect of 90% (IC90) turned out to be 50.9 µM.

As to `O=C(CSc1ncnc2nc[nH]c12)c1ccc(Cl)cc1`, the IC50 is 12.1 µM and the IC90 turned out to be 13.9 µM.

Regarding `COC(=O)CCc1sc(Nc2ccc(Br)cc2)nc1-c1ccc(OC)cc1`, the IC50 was 26 µM and the IC90 turned out to be 44.1 µM.

Take `Clc1ccc(Nc2ccc(-n3ccnc3)nn2)cc1Cl`: the concentration for half-maximal inhibition (IC50) is 18.9 µM and the IC90 amounted to 25.3 µM.

These data come from PubChem BioAssay AID449762 (Southern Research Specialized Biocontainment Screening …, 2010).
